Assay results from patent US20220340875A1, “METHODS OF CULTURING AND/OR EXPANDING STEM CELLS AND/OR LINEAGE COMMITTED PROGENITOR CELLS USING AMIDO COMPOUNDS” (IDEAYA BIOSCIENCES, INC., priority 2018, published 2022).

Target: T1, hAhR (Homo sapiens, UniProt P35869)
T1 construct: Stably integrated DRE-luciferase cell lines were generated by transducing the both cell lines with Cignal XRE luciferase reporter (Qiagen) lentiviral particles; endogenous in cells
T1 sequence (P35869 11-848): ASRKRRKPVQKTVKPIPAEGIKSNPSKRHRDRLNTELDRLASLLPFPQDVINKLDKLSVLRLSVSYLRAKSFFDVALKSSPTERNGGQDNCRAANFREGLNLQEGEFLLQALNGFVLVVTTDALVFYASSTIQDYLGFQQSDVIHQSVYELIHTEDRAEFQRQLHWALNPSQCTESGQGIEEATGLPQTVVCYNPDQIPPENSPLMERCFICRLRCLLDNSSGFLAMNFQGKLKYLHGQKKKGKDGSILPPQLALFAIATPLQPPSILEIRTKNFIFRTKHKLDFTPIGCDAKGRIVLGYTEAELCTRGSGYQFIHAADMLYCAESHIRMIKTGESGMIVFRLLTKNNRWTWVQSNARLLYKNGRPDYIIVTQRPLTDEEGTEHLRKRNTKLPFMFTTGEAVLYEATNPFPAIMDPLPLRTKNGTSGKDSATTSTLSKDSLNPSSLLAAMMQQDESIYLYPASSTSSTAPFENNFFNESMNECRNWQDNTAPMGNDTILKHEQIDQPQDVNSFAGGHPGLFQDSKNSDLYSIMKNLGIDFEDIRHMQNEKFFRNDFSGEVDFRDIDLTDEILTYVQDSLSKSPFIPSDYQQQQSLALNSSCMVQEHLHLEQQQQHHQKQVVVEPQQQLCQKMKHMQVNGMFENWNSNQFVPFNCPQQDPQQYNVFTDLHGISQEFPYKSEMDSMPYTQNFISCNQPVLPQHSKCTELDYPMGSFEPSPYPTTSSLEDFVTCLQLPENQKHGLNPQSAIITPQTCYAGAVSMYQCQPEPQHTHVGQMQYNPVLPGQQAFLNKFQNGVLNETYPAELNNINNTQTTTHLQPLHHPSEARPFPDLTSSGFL
Assay: AhR DRE-luciferase reporter transcriptional assay, antagonist mode (TCDD-induced)
Type: cell-based
Details: HEPG2 DRE-Luc cells, 3 nM TCDD, 24 hour incubation, relative IC50
In short: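 HepG2 cells carrying a stably integrated DRE-luciferase reporter, in OptiMEM with 0.5% FBS; semi-log compound doses added with 3 nM TCDD, 24 h incubation, firefly luciferase read-out. Percent maximal activity normalised between vehicle ± TCDD; relative IC50 taken as half-reduction between curve plateaus.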

Row | IC50 | SMILES
1 | < 200 nM | Cc1cc(-c2ncc3cc(C(F)(F)F)ccc3n2)ccc1N(C)C(=O)c1ccnn1CCO [Example 211, 1-(2-hydroxyethyl)-N-methyl-N-(2-methyl-4-(6-(trifluoromethyl)quinazolin-2-yl)phenyl)-1H-pyrazole-5-carboxamide]
2 | 500 to 1000 nM | Cc1cc(-c2ccc3cc(C(F)(F)F)ccc3n2)ccc1N(C)C(=O)c1ccn[nH]1 [Example 205, N-methyl-N-[2-methyl-4-[6-(trifluoromethyl)quinolin-2-yl]phenyl]-1H-pyrazole-5-carboxamide]
3 | < 200 nM | Cc1cc(-c2ncc3nc(C(F)(F)F)cc(C)c3n2)ccc1NC(=O)c1ccnn1C [Example 147, 1-methyl-N-(2-methyl-4-(8-methyl-6-(trifluoromethyl)pyrido[3,2-d]pyrimidin-2-yl)phenyl)-1H-pyrazole-5-carboxamide]
4 | 200 to 500 nM | Cc1cc(N(C)C(=O)c2ccnn2C)c(F)cc1-c1ncc2nc(C(F)(F)F)cc(C)c2n1 [Example 179, N-(2-fluoro-5-methyl-4-(8-methyl-6-(trifluoromethyl)pyrido[3,2-d]pyrimidin-2-yl)phenyl)-N,1-dimethyl-1H-pyrazole-5-carboxamide]
5 | 500 to 1000 nM | Cc1cc(NC(=O)c2ccnn2C)cnc1-c1ccc2cc(F)ccc2n1 [Example 046, N-(6-(6-fluoroquinolin-2-yl)-5-methylpyridin-3-yl)-1-methyl-1H-pyrazole-5-carboxamide]
6 | 200 to 500 nM | Cc1cc(-c2ncc3cc(C(F)(F)F)ccc3n2)ccc1N(C)C(=O)c1ncn[nH]1 [Example 134, N-methyl-N-(2-methyl-4-(6-(trifluoromethyl)quinazolin-2-yl)phenyl)-1H-1,2,4-triazole-5-carboxamide]
7 | < 200 nM | Cc1cc(-c2ncc3nc(C(F)(F)F)ccc3n2)ccc1N(C)C(=O)c1ccnn1C [Example 136, N,1-dimethyl-N-(2-methyl-4-(6-(trifluoromethyl)pyrido[3,2-d]pyrimidin-2-yl)phenyl)-1H-pyrazole-5-carboxamide]
8 | 1000 to 10000 nM | Cc1nc(-c2ccc3cc(F)ccc3n2)ccc1NC(=O)c1ccnn1C [Example 045, N-(6-(6-fluoroquinolin-2-yl)-2-methylpyridin-3-yl)-1-methyl-1H-pyrazole-5-carboxamide]
9 | 200 to 500 nM | CC(=O)Nc1ccc(-c2ccc3cc(F)ccc3n2)cc1C [Example 040, N-(4-(6-fluoroquinolin-2-yl)-2-methylphenyl)acetamide]
10 | 500 to 1000 nM | Cc1cc(-c2ccc3cc(F)ccc3n2)ccc1NC(=O)c1cnccn1 [Example 032, N-(4-(6-fluoroquinolin-2-yl)-2-methylphenyl)pyrazine-2-carboxamide]
11 | < 200 nM | Cc1cc(-c2ccc3cc(C(F)(F)F)ccc3n2)ccc1N(C)C(=O)c1ccnn1CCO [Example 209, 1-(2-hydroxyethyl)-N-methyl-N-(2-methyl-4-(6-(trifluoromethyl)quinolin-2-yl)phenyl)-1H-pyrazole-5-carboxamide]
12 | 1000 to 10000 nM | Cc1cc(-c2ncc3nc(C(F)(F)F)cc(C)c3n2)ccc1N(C)C(=O)c1ccnn1CCOP(=O)(O)O [Example 194, 2-[5-[methyl([2-methyl-4-[8-methyl-6-(trifluoromethyl)pyrido[3,2-d]pyrimidin-2-yl]phenyl])carbamoyl]-1H-pyrazol-1-yl]ethyl disodium phosphate]
13 | < 200 nM | Cc1cc(-c2ncc3nc(C(F)(F)F)cc(C)c3n2)ccc1NC(=O)c1ccnn1CCO [Example 172, 1-(2-hydroxyethyl)-N-[2-methyl-4-[8-methyl-6-(trifluoromethyl)pyrido-[3,2-d]pyrimidin-2-yl]phenyl]-1H-pyrazole-5-carboxamide]
14 | 1000 to 10000 nM | Cc1c(NC(=O)c2ccnn2C)ccc(-c2ncc3nc(C(F)(F)F)ccc3n2)c1C [Example 190, N-(2,3-dimethyl-4-(6-(trifluoromethyl)pyrido[3,2-d]pyrimidin-2-yl)phenyl)-1-methyl-1H-pyrazole-5-carboxamide]
15 | < 200 nM | Cc1cc(-c2ncc3cc(C(F)(F)F)ccc3n2)ccc1N(C)C(=O)c1ccncc1 [Example 116, N-methyl-N-(2-methyl-4-(6-(trifluoromethyl)quinazolin-2-yl)phenyl)isonicotinamide]
16 | 500 to 1000 nM | Cc1ccc2nc(-c3ccc(NC(=O)c4ccnn4C)c(C)c3)ccc2c1 [Example 079, 1-methyl-N-(2-methyl-4-(6-methylquinolin-2-yl)phenyl)-1H-pyrazole-5-carboxamide]

Row | IC50 | SMILES
17 | < 200 nM | Cc1cc(N(C)C(=O)c2ccnn2C)c(C)cc1-c1ncc2nc(C(F)(F)F)ccc2n1 [Example 188, N-(2,5-dimethyl-4-(6-(trifluoromethyl)pyrido[3,2-d]pyrimidin-2-yl)phenyl)-N,1-dimethyl-1H-pyrazole-5-carboxamide]
18 | 500 to 1000 nM | Cc1cc(-c2ccc3cc(F)ccc3n2)c(F)cc1NC(=O)c1ccnn1C [Example 067, N-(5-fluoro-4-(6-fluoroquinolin-2-yl)-2-methylphenyl)-1-methyl-1H-pyrazole-5-carboxamide]
19 | 500 to 1000 nM | Cn1nccc1C(=O)Nc1ccc(-c2cnc3ccccc3n2)cc1 [Example 003, 1-methyl-N-(4-(quinoxalin-2-yl)phenyl)-1H-pyrazole-5-carboxamide]
20 | < 200 nM | Cc1cc(-c2ccc3cc(F)cc(C)c3n2)ccc1NC(=O)c1ccnn1C [Example 052, N-(4-(6-fluoro-8-methylquinolin-2-yl)-2-methylphenyl)-1-methyl-1H-pyrazole-5-carboxamide]
21 | 1000 to 10000 nM | Cc1cc(-c2cc(C)c3ccccc3n2)ccc1NC(=O)OC(C)(C)C [Example 015, tert-butyl (2-methyl-4-(4-methylquinolin-2-yl)phenyl)carbamate]
22 | < 200 nM | Cc1cc(-c2ncc3nc(C(F)(F)F)cc(C)c3n2)ccc1NC(=O)c1ccnc(C(N)=O)c1 [Example 166, N4-(2-methyl-4-(8-methyl-6-(trifluoromethyl)pyrido[3,2-d]pyrimidin-2-yl)phenyl)pyridine-2,4-dicarboxamide]
23 | 200 to 500 nM | Cc1cc(NC(=O)c2c(C)cnn2C)c(F)cc1-c1ccc2cc(C(F)(F)F)ccc2n1 [Example 207, N-(2-fluoro-5-methyl-4-(6-(trifluoromethyl)quinolin-2-yl)phenyl)-1,4-dimethyl-1H-pyrazole-5-carboxamide]
24 | 1000 to 10000 nM | Cc1cc(-c2ncc3nc(C(F)(F)F)cc(C)c3n2)ccc1N(C)C(=O)c1cc(C(=O)O)nn1CC(N)=O [Example 195, 1-(2-amino-2-oxoethyl)-5-(methyl(2-methyl-4-(8-methyl-6-(trifluoro-methyl)pyrido[3,2-d]pyrimidin-2-yl)phenyl)carbamoyl)-1H-pyrazole-3-carboxylic acid]
25 | < 200 nM | CNC(=O)N(C)c1ccc(-c2ncc3cc(C(F)(F)F)ccc3n2)cc1C [Example 127, 1,3-dimethyl-1-(2-methyl-4-(6-(trifluoromethyl)quinazolin-2-yl)phenyl)urea]
26 | 200 to 500 nM | Cc1cc(-c2ccc3cc(F)cc(C(F)(F)F)c3n2)ccc1NC(=O)c1ccnn1C [Example 058, N-(4-(6-fluoro-8-(trifluoromethyl)quinolin-2-yl)-2-methylphenyl)-1-methyl-1H-pyrazole-5-carboxamide]
27 | < 200 nM | Cc1cc(-c2ncc3cc(C(F)(F)F)ccc3n2)ccc1NC(=O)c1ccncc1C [Example 121, 3-methyl-N-(2-methyl-4-(6-(trifluoromethyl)quinazolin-2-yl)phenyl)isonicotinamide]
28 | 200 to 500 nM | Cc1cc(-c2ccc3cc(Cl)ccc3n2)ccc1NC(=O)c1ccnn1C [Example 065, N-(4-(6-Chloroquinolin-2-yl)-2-methylphenyl)-1-methyl-1H-pyrazole-5-carboxamide]
29 | < 200 nM | Cc1cc(-c2ccc3cc(C#N)ccc3n2)ccc1NC(=O)c1ccnn1C [Example 073, N-(4-(6-cyanoquinolin-2-yl)-2-methylphenyl)-1-methyl-1H-pyrazole-5-carboxamide]
30 | < 200 nM | CC(=O)N(C)c1ccc(-c2ncc3cc(C(F)(F)F)ccc3n2)cc1C [Example 130, N-methyl-N-(2-methyl-4-(6-(trifluoromethyl)quinazolin-2-yl)phenyl)acetamide]
31 | 1000 to 10000 nM | Cc1cc(-c2ncc3cc(C(F)(F)F)ccc3n2)ccc1N(C)C(=O)c1ccnn1Cc1nnn[nH]1 [Example 158, 1-((1H-tetrazol-5-yl)methyl)-N-methyl-N-(2-methyl-4-(6-(trifluoromethyl)-quinazolin-2-yl)phenyl)-1H-pyrazole-5-carboxamide]
32 | < 200 nM | Cn1nccc1C(=O)Nc1ccc(-c2ncc3nc(C(F)(F)F)ccc3n2)cc1F [Example 137, N-(2-fluoro-4-(6-(trifluoromethyl)pyrido[3,2-d]pyrimidin-2-yl)phenyl)-1-methyl-1H-pyrazole-5-carboxamide]
